# According to US20160361250A1, “ACTIVE INGREDIENTS STIMULATING TYPE 2 AND/OR TYPE 3 HUMAN BETA-DEFENSINS AND COSMETIC OR PHARMACEUTICAL COMPOSITIONS CONTAINING SUCH ACTIVE INGREDIENTS” (BASF Beauty Care Solutions France S.A.S., priority 2002, published 2016):
# Several values for one entry are separate records, joined by “and”; a condition that tells them apart may be missing. Identical values can stand only once.
# Columns and labels:
# MIP3α [1] = assay: ELISA of MIP3α secreted into the culture medium, 1st step; type: cell-based, human; conditions: 100 μg/mL; keratinocyte supernatant, 16 h
# Description: (§1) At the end of this first step, the actives having exerted an effect on β-defensin expression are selected and the supernatants corresponding to these actives are then tested using an ELISA kit in order to determine the levels of MIP3α, IL1 and IL8 secreted into the culture medium under the effect of the actives. The levels are then referred to the RNA concentration assayed in each well in order to compare results with each other.
# (§2) Since the basal level of defensin expression is generally not detectable, stimulation of hBD2 and hBD3 is expressed as a percentage of the positive controls (TNFα for hBD2 and IFNγ for hBD3). IL8 and MIP3α levels are given as pg/mL/RNA concentration (in ng/μL).
# hBD3 [2] = assay: Qualitative RT-PCR of hBD3 expression, 1st step of the screening method; type: cell-based; conditions: normal human keratinocytes, 16 h
# Description: (§3) At 80% confluence, cells are contacted with the actives (1 active per well) for 16 h. An untreated control and 2 positive controls (TNFα 100 ng/mL for hBD2 and IFNγ 100 ng/mL for hBD3) are set up in parallel on the same culture plate.
# (§4) After 16 h, the supernatants are collected and cells are dry frozen at −80° C. after rinsing in PBS.
# (§5) Total RNA are extracted using a 96-well extraction kit on silica columns and assayed using a 96-well spectrophotometer at 260 and 280 nm. RNA are diluted to 5 ng/mL.
# (§6) Qualitative one-step RT-PCR is performed on 50 ng of initial RNA in 96 wells, on actin, hBD2 and hBD3. The primers are used at a concentration of 0.5 μM and arc taken from the literature:—hBD2: sense: 5′-[…]-3′; hBD2 antisense 5′-[…]-3′ (Harder J. et al., A peptide antibiotic from human skin. Nature 1997; 387 : 861); hBD3 sense: 5′-[…]-3′; hBD3 antisense: 5′-[…]-3′; actin sense: 5′-[…]-3′; actin antisense: 5′-[…]-3′ (Harder J. et al., Isolation and characterization of human β-defensin-3, a novel human inducible peptide antibiotic. J Biol Chem 2001, 276 : 5707-5713).
# (§7) Samples are placed in a thermocycler and follow a common amplification program: 50° C., 30 min; 94° C., 2 min, (94° C., 30 s; 60° C., 30 s; 68° C., 30 s), 32 cycles for the defensins and 30 cycles for actin; 72° C., 10 min; 14° C., infinite.
# (§8) After amplification, the products are mixed at a rate of 3 μL of actin amplification products+6 μL of hBD2 amplification products+6 μL of hBD3 amplification products. 5 μL of a mixture of charge buffer and water (⅔) are added and the final 20 μL are deposited on 2% premoulded agarose gel. The samples migrate in 30 minutes and the bands are visualised under UV in a dark room then digitally photographed.
# (§9) Photos of the gels are analysed by image processing software which quantifies the intensity of the bands. As the basal level of defensin expression (untreated control) is not detectable, the intensity ratios of the hBD2/actin and hBD3/actin bands can be compared, for example with those obtained for the positive control (treated with TNFα for hBD2 and IFNγ for hBD3) and indicate any stimulation of the expression of the β-defensin in question
# as §2
# hBD2 [3] = assay: Qualitative RT-PCR of hBD2 expression, 1st step of the screening method; type: cell-based; conditions: normal human keratinocytes, 16 h
# Description: (§10) A 1% concentration of the actives is tested on normal human keratinocytes, as a monolayer, on 96-well culture plates, in a specific medium enriched with calcium and free of serum (final concentration 1.7 mM).
# as §3, §4, §5, §6, §7, §8, §9, §2
# IL8 [4] = assay: ELISA of IL8 secreted into the culture medium, 1st step; type: cell-based, human; conditions: keratinocyte supernatant, 16 h
# Description: as §1, §2
# hBD3 [5] = assay: Quantitative RT-PCR of hBD3 expression, 2nd step (dose-effect); type: cell-based, human; conditions: 16 h, untreated control = 100%
# Description: (§11) The actives are then tested on 5 concentrations (from 0.001% to max viability) in quadruplicate on normal human keratinocytes as a monolayer on 96-well culture plates, in a specific medium enriched with calcium and free of serum (CaCl2 1.7 mM) (same conditions as in example 1).
# as §4
# (§12) Total RNA are extracted using a 96-well extraction kit on silica columns and assayed using a 96-well spectrophotometer at 260 and 280 nm. RNA are diluted to 5 ng/μL.
# (§13) Quantitative RT-PCR in 96 wells on actin, hBD2 and hBD3 is initially carried out on 50 ng of RNA, using a one-step kit containing Sybrgreen, in a fluorescence thermocycler with the same primers as previously (0.5 μM). The amplification program is as follows: 50° C., 30 min; 94° C., 15 min; (94° C., 15 s; 60° C., 30 s; 72° C., 30 s)×50 cycles; 90° C., 1 min; 30° C., 1 min; 50° C. to 95° C. (10 s every ° C.); 14° C., infinite.
# (§14) A study of the fusion graphs makes it possible to verify the specificity of amplified products. The fluorescence graph as a function of the number of cycles gives the C(T) value corresponding to the number of cycles needed to obtain initiation of the fluorescence signal. The more an mRNA is expressed, the lower the C(T) value. Calculation of Sgene=(½)^C(T) for each RNA takes into consideration the exponential increase in the number of copies during amplification. The Sgene hBD2/Sgene actin and Sgene hBD3/Sgene actin ratios can be compared with those of the untreated control to give the percentage stimulation produced.
# (§15) Quantitative RT-PCR makes it possible to obtain a basal value for the defensin expression for untreated controls. The results are therefore expressed as a percentage of the control. IL8, IL1 and MIP3 cytokine levels are given as pg/mL/RNA concentration (in ng/μL).
# (§16) In the same way as in example 2, retinoic acid and retinol were tested for their capacity to stimulate hBD2 and/or hBD3.
# hBD2 [6] = assay: Quantitative RT-PCR of hBD2 expression, 2nd step (dose-effect); type: cell-based, human; conditions: 16 h, untreated control = 100%
# Description: as §11, §4, §12, §13, §14, §15, §16
# MIP3α [7] = assay: ELISA of MIP3α in supernatants, 2nd step; type: cell-based, human; conditions: supernatant, 16 h
# Description: (§17) The supernatants of the actives, whose capacity to induce defensins has been confirmed, are tested using an ELISA kit in order to assay MIP3α, IL8 and IL1α levels. These assays are performed on the same supernatant (200 μL) by carrying out a series dilution (by 1.5 to assay MIP3α and IL8, then by 2 to assay IL1). The levels are then referred to the RNA concentration assayed in each well in order to compare results with each other.
# as §15
# IL8 [8] = assay: ELISA of IL8 in supernatants, 2nd step; type: cell-based, human; conditions: supernatant, 16 h
# Description: as §17, §15
# IL1α = assay: ELISA of IL1α in supernatants, 2nd step; type: cell-based, human; conditions: supernatant, 16 h
# Description: as §17, §15
# hBD2 and/or hBD3 [9] = assay: 1st step of the screening method, overall outcome (defensin RT-PCR plus MIP3α/IL8 ELISA); type: cell-based, human; conditions: first step
# Description: as §10, §3, §4, §5
# as §6, with “5707-5713). […]” for “5707-5713).”
# Photos of the gels are analysed by image processing software which quantifies the intensity of the bands. […]
# hBD2 and/or hBD3 [10] = assay: 2nd step of the screening method, overall outcome (quantitative RT-PCR plus MIP3α/IL8/IL1α ELISA); type: cell-based, human; conditions: 3.125, 6.25, 12.5 and 25 μg/mL
# Description: The actives which best satisfied the criteria for the first step undergo a dose-effect analysis.
# as §11, §4, §12, §13, §14
# as §17, with “The levels are then referred to the RNA concentration assayed in each well in order to compare results with each other.” left out
molecule,measurement,setting,value
CC[C@H](C)[C@H](N)C(=O)OC [Isoleucine Methyl ester],MIP3α level,MIP3α [1],3.8 pg/mL/RNA concentration (in ng/μL)
same,"HBD3 expression, percentage of the positive control (IFNγ)",hBD3 [2]; 100 μg/mL,6%
same,"HBD2 expression, percentage of the positive control (TNFα)",hBD2 [3]; 100 μg/mL,16%
same,IL8 level,IL8 [4]; 100 μg/mL,7.7 pg/mL/RNA concentration (in ng/μL)
CC[C@H](C)[C@H](N)C(=O)O [L-Isoleucine],"hBD3 expression, percentage of the control",hBD3 [5]; conc. 3.125 μg/mL,89%
same,"hBD3 expression, percentage of the control",hBD3 [5]; conc. 6.25 μg/mL,94%
same,"hBD3 expression, percentage of the control",hBD3 [5]; conc. 12.5 μg/mL,101%
same,"hBD3 expression, percentage of the control",hBD3 [5]; conc. 25 μg/mL,106%
same,"hBD2 expression, percentage of the control",hBD2 [6]; conc. 3.125 μg/mL,110%
same,"hBD2 expression, percentage of the control",hBD2 [6]; conc. 6.25 μg/mL,107%
same,"hBD2 expression, percentage of the control",hBD2 [6]; conc. 12.5 μg/mL,95%
same,"hBD2 expression, percentage of the control",hBD2 [6]; conc. 25 μg/mL,110%
same,"HBD3 expression, percentage of the positive control (IFNγ)",hBD3 [2]; 10 μg/mL,0%
same,MIP3α level,MIP3α [7]; conc. 3.125 μg/mL,5.2 pg/mL/RNA concentration (in ng/μL)
same,MIP3α level,MIP3α [7]; conc. 6.25 μg/mL,4.9 pg/mL/RNA concentration (in ng/μL)
same,MIP3α level,MIP3α [7]; conc. 12.5 μg/mL,5.9 pg/mL/RNA concentration (in ng/μL)
same,MIP3α level,MIP3α [7]; conc. 25 μg/mL,4.5 pg/mL/RNA concentration (in ng/μL)
same,IL8 level,IL8 [8]; conc. 3.125 μg/mL,36.9 pg/mL/RNA concentration (in ng/μL)
same,IL8 level,IL8 [8]; conc. 6.25 μg/mL,33.6 pg/mL/RNA concentration (in ng/μL)
same,IL8 level,IL8 [8]; conc. 12.5 μg/mL,42.2 pg/mL/RNA concentration (in ng/μL)
same,IL8 level,IL8 [8]; conc. 25 μg/mL,35.1 pg/mL/RNA concentration (in ng/μL)
same,IL1α level,IL1α; conc. 3.125 μg/mL,21 pg/mL/RNA concentration (in ng/μL)
same,IL1α level,IL1α; conc. 6.25 μg/mL,22.3 pg/mL/RNA concentration (in ng/μL)
same,IL1α level,IL1α; conc. 12.5 μg/mL,25.3 pg/mL/RNA concentration (in ng/μL)
same,IL1α level,IL1α; conc. 25 μg/mL,22.8 pg/mL/RNA concentration (in ng/μL)
same,"HBD2 expression, percentage of the positive control (TNFα)",hBD2 [3]; 10 μg/mL,0%
same,stimulation of human defensins 2 and 3 by qualitative RT-PCR (in words),hBD2 and/or hBD3 [9],no significant stimulation of human defensins 2 and 3
same,induction of hBD2 and hBD3 expression in normal human keratinocytes (in words),hBD2 and/or hBD3 [10],has not been found capable of inducing hBD2 and hBD3 expression
TNFα,"hBD3 expression, percentage of the control",hBD3 [5]; conc. 100 ng/mL,774%
same,"hBD2 expression, percentage of the control",hBD2 [6]; conc. 100 ng/mL,1755%
same,"HBD3 expression, percentage of the positive control (IFNγ)",hBD3 [2]; 100 ng/mL (positive control),100%
same,MIP3α level,MIP3α [7]; conc. 100 ng/mL,23.6 pg/mL/RNA concentration (in ng/μL)
same,IL8 level,IL8 [8]; conc. 100 ng/mL,175 pg/mL/RNA concentration (in ng/μL)
same,IL1α level,IL1α; conc. 100 ng/mL,21.8 pg/mL/RNA concentration (in ng/μL)
same,"HBD2 expression, percentage of the positive control (TNFα)",hBD2 [3]; 100 ng/mL (positive control),100%
same,IL8 level,IL8 [4]; 100 ng/mL (positive control),186 pg/mL/RNA concentration (in ng/μL) and 97 pg/mL/RNA concentration (in ng/μL)
"CC[C@H](C)[C@H](N)C(=O)O (racemic) [D,L-Isoleucine]",MIP3α level,MIP3α [1],5.6 pg/mL/RNA concentration (in ng/μL)
same,"HBD3 expression, percentage of the positive control (IFNγ)",hBD3 [2]; 100 μg/mL,0%
same,"HBD2 expression, percentage of the positive control (TNFα)",hBD2 [3]; 100 μg/mL,0%
same,IL8 level,IL8 [4]; 100 μg/mL,30.6 pg/mL/RNA concentration (in ng/μL)
"IFNγ: gamma interferon, positive control for hBD3 stimulation, 100 ng/mL (protein, UniProt P01579 24-161, looked up) Interferon gamma: QDPYVKEAENLKKYFNAGHSDVADNGTLFLGILKNWKEESDRKIMQSQIVSFYFKLFKNFKDDQSIQKSVETIKEDMNVKFFNSNKKKRDDFEKLTNYSVTDLNVQRKAIHELIQVMAELSPAAKTGKRKRSQMLFRG","hBD3 expression, percentage of the control",hBD3 [5]; conc. 100 ng/mL,4631%
same,"hBD2 expression, percentage of the control",hBD2 [6]; conc. 100 ng/mL,472%
same,MIP3α level,MIP3α [7]; conc. 100 ng/mL,11.6 pg/mL/RNA concentration (in ng/μL)
same,IL8 level,IL8 [8]; conc. 100 ng/mL,100.5 pg/mL/RNA concentration (in ng/μL)
same,IL1α level,IL1α; conc. 100 ng/mL,40.1 pg/mL/RNA concentration (in ng/μL)
